# Results from US6806281B2 (Georgetown University, priority 1997, dated 2004).
# What was measured:
# dopamine transporter [1] = target: T1, dopamine transporter (Rattus norvegicus, UniProt P23977); test: biochemical; settings: IC50 (nM) [3H]WIN 35,428 binding, rat striatal membranes
# dopamine transporter [2] = target: T1, dopamine transporter; test: biochemical; settings: IC50 (nM) [3H]dopamine uptake, rat striatal synaptosomes
# [3] = tested on: striatal dopamine transporter; test: PET evaluation of 11C-labeled isomers; settings: for specific binding to striatal dopamine transporter sites: in vivo PET
# Description: The products were purified by HPLC on a C-18 cartridge eluted with MeOH:phosphate/triethylamine buffer, pH 7.2 (60:40).
# After passage through a 0.22 μm filter, the sterile products were administered to three Rhesus monkeys and dynamic PET images were acquired over 90 minutes.
# Locomotor activity = format: in vivo, Sprague-Dawley rats
# Description: The locomotor effects of compound 2 were evaluated using male Swiss Webster mice according to previously published procedures: Izenwasser, S., Terry, P., Heller, B., Witkin, J. M., and Katz, J. L. (1994) Differential relationships among dopamine transporter affinities and stimulant potencies of various uptake inhibitors. Eur. J. Pharmacol., 263, 277-283.
# Thus the small behavioral responses to the piperidine analog appear to last longer than that of cocaine.
# [4] = Drug discrimination, amphetamine substitution tests; format: in vivo, rats; settings: for response rates: across all test doses
# [5] = Drug discrimination, cocaine substitution and co-administration tests; format: in vivo, rats
# [6] = Intravenous drug self-administration; format: in vivo, rats; settings: for self-administration responding: i.v., FR10, cocaine 1 mg/kg/infusion, analog 2 0.3-3 mg/kg/infusion, analog 3 0.125-0.5 mg/kg infusion, vs saline extinction
# Text: J. Neurosci., 16, 7416-7427.
# Rats were initially trained to lever press for food pellets in standard operant boxes. Following lever press training, rats were implanted with polyvinyl chloride catheters into femoral veins under halothane anesthesia (2-3% in medical grade oxygen) and were allowed to recover for an additional 7 days before initiation of i.v. drug self-administration testing. During drug self-administration sessions, food pellets were no longer delivered, and instead intravenous injections of drugs were delivered by way of the catheter.
# Following this second extinction test, self-administration of piperidine analog 2 was studied at doses of 1, 3, and 0.3 mg/kg/infusion in that order. Each dose was tested for five days. During all the re-acquisition test days, a priming infusion was given at the start of the session on each day.
# dopamine transporter [7] = target: T1, dopamine transporter; settings: relative to cocaine
# dopamine transporter [8] = target: T1, dopamine transporter; settings: relative to cocaine; remark: listed apart in the source
# T1 sequence (P23977 whole entry): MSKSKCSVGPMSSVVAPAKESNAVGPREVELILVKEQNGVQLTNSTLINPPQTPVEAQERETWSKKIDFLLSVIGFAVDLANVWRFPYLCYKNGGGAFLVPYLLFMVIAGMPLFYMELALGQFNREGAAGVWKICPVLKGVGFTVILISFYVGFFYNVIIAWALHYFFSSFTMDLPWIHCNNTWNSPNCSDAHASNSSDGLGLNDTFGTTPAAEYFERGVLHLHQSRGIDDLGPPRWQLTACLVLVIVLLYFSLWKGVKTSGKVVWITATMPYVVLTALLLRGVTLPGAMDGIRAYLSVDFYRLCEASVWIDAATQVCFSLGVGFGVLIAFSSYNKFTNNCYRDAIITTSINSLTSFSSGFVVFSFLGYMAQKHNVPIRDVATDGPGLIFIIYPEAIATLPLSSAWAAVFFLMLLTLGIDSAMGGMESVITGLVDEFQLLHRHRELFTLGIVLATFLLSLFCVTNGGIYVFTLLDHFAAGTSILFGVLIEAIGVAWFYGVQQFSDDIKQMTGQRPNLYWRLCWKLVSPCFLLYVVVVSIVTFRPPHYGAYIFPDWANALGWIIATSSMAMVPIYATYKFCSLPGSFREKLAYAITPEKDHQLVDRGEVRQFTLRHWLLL
structure (smiles),measurement,setting,value
"CCCC1CN(C)CCC1c1ccc(Cl)cc1 (single isomer, unassigned; (+)) [(+)-15, (+) 4β-(4-chlorophenyl)-1-methyl-3α-n-propylpiperidine]",IC50,dopamine transporter [1],17.2 ± 0.5 nM
same,IC50,dopamine transporter [2],23.2 ± 2.2 nM
"COC(=O)C1CN(C)CCC1c1ccc(Cl)cc1 (single isomer, unassigned; isomer 4) [trans isomer, 4-(4-chlorophenyl)-3-carbomethoxy-N-methylpiperidine]",specific binding to striatal dopamine transporter sites,[3],high levels of specific binding
same,striatal activity after unlabeled CFT,[3]; unlabeled CFT administered 60 minutes after injection,selective decrease in the striatal activity
"COC(=O)C1CN(C)CCC1c1ccc(Cl)cc1 (racemic) [(±)-2, (±)-cis-Methyl 4-(4-Chlorophenyl)-1-methylpiperidine-3-carboxylate]",time-course of stereotypic response,Locomotor activity; 90 minutes following the drug injection,persistent at 90 minutes
same,convulsions,Locomotor activity; doses higher than 20 mg/kg i.p.,produce convulsions
same,distance traveled,"Locomotor activity; i.p., cocaine 10 mg/kg, analog 2 3-20 mg/kg, compared to saline control",did not alter the distance traveled
same,stereotypic behavior / stereotypic time,"Locomotor activity; i.p., cocaine 10 mg/kg, analog 2 10 and 20 mg/kg, compared to saline control","small, statistically nonsignificant increase in stereotypic time"
same,response rates,[4],remained fairly stable
same,effect of co-administration on drug choice and response rate of cocaine,[5]; analog 2 10 mg/kg plus cocaine 1.25 and 5 mg/kg,did not significantly alter drug choice
same,response rates compared with cocaine (10 mg/kg),[5]; analog 2 5 and 10 mg/kg,substantially lower
same,maximum cocaine-lever responding,[5]; analog 2 5 and 20 mg/kg,40%
same,number of infusions delivered,"[6]; analog 2, all doses tested (0.3-3 mg/kg/infusion), vs saline extinction test",not significantly different from that of the saline extinction test
same,self-administration responding,[6],failed to restore the self-administration responding
"COC(=O)[C@@H]1CN(C)CC[C@@H]1c1ccc(Cl)cc1 (racemic) [Compound (±)-1, (±)-cis-Methyl 4-(4-Chlorophenyl)-1-methylpiperidine-3-carboxylate]",melting point,,98 to 99 °C
"COC(=O)C1CN(C)CCC1c1ccc(Cl)cc1 (single isomer, unassigned; (-)) [(−)-3, (−)-Methyl 4β-(4-chlorophenyl)-1-methylpiperidine-3β-carboxylate]",self-administration responding,[6],rats reliably self-administered this compound
same,IC50,dopamine transporter [1],24.8 ± 1.6 nM
same,IC50,dopamine transporter [2],85.2 ± 2.6 nM
"CCCC1CN(C)CCC1c1ccc(Cl)cc1 (single isomer, unassigned; (-)) [(−)-9, (−) 4β-(4-chlorophenyl)-1-methyl-3β-n-propylpiperidine]",fold more potent than cocaine in binding affinity,dopamine transporter [7],33 fold
same,fold more potent than cocaine in inhibition of dopamine uptake,dopamine transporter [8],29 fold
same,IC50,dopamine transporter [1],3 nM
same,IC50,dopamine transporter [2],8.3 ± 0.6 nM
"COC(=O)C1CN(C)CCC1c1ccc(Cl)cc1 (single isomer, unassigned; (+)) [(+)-11, (+)-Methyl 4β-(4-chlorophenyl)-1-methylpiperidine-3α-carboxylate]",IC50,dopamine transporter [1],57.3 ± 8.1 nM
same,IC50,dopamine transporter [2],34.6 ± 3.2 nM
"CC(=O)OCC1CN(C)CCC1c1ccc(Cl)cc1 (single isomer, unassigned; (-)) [(−)-7, (−)-3β-(Acetoxymnethyl)-4β-(4-chlorophenyl)-1-methylpiperidine]",melting point,,76 °C
same,IC50,dopamine transporter [1],44.7 ± 10.5 nM
same,IC50,dopamine transporter [2],62.9 ± 2.7 nM
"CN1CCC(c2ccc(Cl)cc2)C(CO)C1 (single isomer, unassigned; (-)) [(−)-5, (−)-4β-(4-Chlorophenyl)-3β-(hydroxymethyl)-1-methylpiperidine]",IC50,dopamine transporter [2],49 ± 3 nM
"COC(=O)C1CN(C)CCC1c1ccc(Cl)cc1 (single isomer, unassigned; isomer 4) [cis isomer, 4-(4-chlorophenyl)-3-carbomethoxy-N-methylpiperidine]",accumulation in brain regions (dynamic PET),"[3]; 11C-labeled, PET images over 90 minutes",greater nonspecific accumulation in the cortex
same,specific binding to striatal dopamine transporter sites,[3],high levels of specific binding
CC(N)Cc1ccccc1 (centres unmarked) [amphetamine],response rates,[4],remained fairly stable
same,substitution for the discriminative stimulus effects of amphetamine,[4]; substitution tests,dose-dependent and complete substitution
